Reference: US10739304B2, “Organic transistor-based system for electrophysiological monitoring of cells and method for the monitoring of the cells” (UNIVERSITA DEGLI STUDI DI CAGLIARI, priority 2015, dated 2020)

Tested on: rat cardiomyocytes culture
Experiment: Spontaneous electrical (beating) activity of rat cardiomyocyte culture recorded with the organic transistor (OCMFET) system, pharmacological modulation
Assay type: cell-based
Conditions: 100 μM; for beating frequency modulation: spike-count on 4 min: rat cardiomyocytes culture (8 DIV) at 37° C., Verapamil added after Norepinephrine, statistics on 5 transistors, average and standard deviation, basal 129±4.6; for chemical tuning of the culture's spontaneous activity (drain current vs time): rat cardiomyocytes culture at 37° C., Norepinephrine first, then Verapamil
Source text: The system 100 was able to detect the occurrence of the signals (similarly to what MEA-based devices do), the beat rate and its rapid changing related to pharmacological modulations, obtained by applying both positive and negative chronotropic compounds (according to the method described in Simpson, P. Stimulation of hypertrophy of cultured neonatal rat heart cells through an alpha 1-adrenergic receptor and induction of beating through an alpha 1- and beta 1-adrenergic receptor interaction. Evidence for independent regulation of growth and beating. Circ. Res. 56, 884-894 (1985); Yonemochi, H., Saikawa, T., Takakura, T., Ito, S., Takaki, R. Effects of calcium antagonist on β-receptors of cultured cardiac myocytes isolated from neonatal rat ventricle. Circulation 81, 1401-1408 (1990)). In FIG. 13 an example of extracellular action potentials measured, with an organic transistor 10 is shown. Considering a p-type organic transistor and a first inverting stage of the readout electronics, the shape of the single signal shown in FIG. 13 is consistent with the expected current fluctuation caused by the ionic charge displacement in the early phase of the cardiac action potential. The drain current IDS fluctuation is driven by the fast movement of Na+ ions occurring at the very beginning of the intracellular action potential.
Systematic measurements by recording the spontaneous electrophysiological activity of rat cardiomyocytes (8 Days InVitro—DIV) by means of the system 100 (FIG. 14) have been performed.
All the measurements relative to the pharmacological modulation of the electrical activity were performed while maintaining the culture at constant temperature (37° C.) and the same reliable results were obtained in five recording devices simultaneously.

| Structure (SMILES) | beating frequency modulation: spike-count on 4 min | chemical tuning of the culture's spontaneous activity (drain current vs time) |
| --- | --- | --- |
| COc1ccc(CCN(C)CCCC(C#N)(c2ccc(OC)c(OC)c2)C(C)C)cc1OC (stereo not shown) [Verapamil] | 15±1.9 | suppressed |
| NC[C@H](O)c1ccc(O)c(O)c1 [Norepinephrine] | 280±28.6 | accelerated |
